Measured values published in US20240173344A1, “USE OF GABAA RECEPTOR AS TARGET IN PREPARATION OR SCREENING OF DRUG FOR LOWERING BLOOD LIPID LEVEL, TREATING OBESITY, AND/OR IMPROVING METABOLISM” (SHANGHAI INSTITUTE OF ENDOCRINE AND METABOLIC DISEASES, priority 2022, published 2024).
“And” between values parts separate entries of the source, which are not always exact repeats. Equal values may be shown once.

Assays:
[1] = target: T1, γ2 subunit of the GABAA receptor (Gabrg2) in the DMV (Mus musculus, UniProt P22723+P62812); experiment: DMV-specific knockdown of Gabrg2 to block puerarin in obese mouse model: body weight, blood lipid, jejunal TG, c-fos; format: in vivo, mice; conditions: for Body weight curve change percentage / Jejunal TG level / Blood lipid level: single mice and mean
T1 construct: from tissue; host or cells: brainstem DMV of living obese mice
T1 sequence (P22723 39-474): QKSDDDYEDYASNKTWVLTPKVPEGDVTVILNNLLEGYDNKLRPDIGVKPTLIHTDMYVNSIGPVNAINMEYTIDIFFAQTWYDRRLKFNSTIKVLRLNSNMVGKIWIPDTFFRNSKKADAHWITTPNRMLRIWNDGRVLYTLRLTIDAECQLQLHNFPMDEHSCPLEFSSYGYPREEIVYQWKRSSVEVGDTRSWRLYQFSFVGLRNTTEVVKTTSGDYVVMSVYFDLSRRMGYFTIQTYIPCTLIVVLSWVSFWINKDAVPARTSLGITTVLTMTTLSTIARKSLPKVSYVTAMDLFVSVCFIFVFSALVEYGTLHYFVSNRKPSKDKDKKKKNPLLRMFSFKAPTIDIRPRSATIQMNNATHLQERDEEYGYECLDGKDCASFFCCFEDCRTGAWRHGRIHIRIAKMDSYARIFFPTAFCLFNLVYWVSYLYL
T1 sequence (P62812 28-455): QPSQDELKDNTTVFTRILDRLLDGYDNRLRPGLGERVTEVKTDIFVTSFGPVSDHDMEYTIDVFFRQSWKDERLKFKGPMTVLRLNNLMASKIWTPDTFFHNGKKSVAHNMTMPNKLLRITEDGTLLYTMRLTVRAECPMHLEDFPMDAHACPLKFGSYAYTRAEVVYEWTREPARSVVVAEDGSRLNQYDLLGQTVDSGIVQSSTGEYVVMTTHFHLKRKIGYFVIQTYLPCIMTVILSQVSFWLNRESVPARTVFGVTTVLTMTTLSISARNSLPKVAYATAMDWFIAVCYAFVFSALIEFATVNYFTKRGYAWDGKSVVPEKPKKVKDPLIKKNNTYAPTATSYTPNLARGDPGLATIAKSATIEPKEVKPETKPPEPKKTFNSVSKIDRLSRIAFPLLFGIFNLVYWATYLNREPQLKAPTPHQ
T1 sequence (P63080 26-473 partner): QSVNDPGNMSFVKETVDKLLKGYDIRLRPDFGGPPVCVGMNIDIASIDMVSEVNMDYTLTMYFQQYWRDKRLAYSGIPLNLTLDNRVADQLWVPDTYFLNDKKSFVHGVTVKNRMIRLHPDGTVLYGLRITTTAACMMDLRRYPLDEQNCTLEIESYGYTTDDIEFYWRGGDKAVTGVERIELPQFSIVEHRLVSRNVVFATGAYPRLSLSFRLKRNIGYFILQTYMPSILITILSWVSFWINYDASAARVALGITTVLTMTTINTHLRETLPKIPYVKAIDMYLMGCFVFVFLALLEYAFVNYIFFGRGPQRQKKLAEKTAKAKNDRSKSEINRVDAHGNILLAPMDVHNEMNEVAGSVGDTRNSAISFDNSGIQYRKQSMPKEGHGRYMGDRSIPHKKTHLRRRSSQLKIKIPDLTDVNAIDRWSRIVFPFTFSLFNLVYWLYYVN
Description: A method for determining TG in a sample was as follows: 20 mg to 30 mg of a sample was first weighed, a 5% NP40-containing lysis buffer was added, and a resulting mixture was homogenated and incubated in a metal bath at 95° C. for 5 min, which was repeated twice. A resulting homogenate was cooled to room temperature and then centrifuged at 15,000 rpm for 2 min to 3 min, and a resulting supernatant was pipetted for determination. A Biovision kit was used to determine TG. 2 μl of the supernatant was added to each well, and after a chromogenic reaction was completed, a value of each well was determined by a microplate reader. TG in the small intestinal tissue was quantified through a standard protein concentration; and a total amount of lipids excreted with the feces was calculated based on a measured value of the feces sample and a total mass of the sample at 24 h.
Similar to the above experiment, the rAAV-DIO-Gabrg2-shRNA (BrainVTA, China) was used to knock down Gabrg2 (a gene encoding the γ2 subunit of the GABAA receptor) in the DMV in an obese mouse model, and the rAAV-DIO-mCherry (BrainVTA, China) was used as a control group.

GABAA (α1β3γ2) receptor = target: T2, GABAA (α1β3γ2) receptor (Homo sapiens, UniProt P14867+P18507); experiment: Bioelectric signal of 293S cell line with GABA and puerarin co-incubation; format: cell-based; conditions: 0.5 μM GABA co-incubated with puerarin for 3 min to 5 min
T2 construct: expressed in transfected cells
T2 sequence (P14867 28-456): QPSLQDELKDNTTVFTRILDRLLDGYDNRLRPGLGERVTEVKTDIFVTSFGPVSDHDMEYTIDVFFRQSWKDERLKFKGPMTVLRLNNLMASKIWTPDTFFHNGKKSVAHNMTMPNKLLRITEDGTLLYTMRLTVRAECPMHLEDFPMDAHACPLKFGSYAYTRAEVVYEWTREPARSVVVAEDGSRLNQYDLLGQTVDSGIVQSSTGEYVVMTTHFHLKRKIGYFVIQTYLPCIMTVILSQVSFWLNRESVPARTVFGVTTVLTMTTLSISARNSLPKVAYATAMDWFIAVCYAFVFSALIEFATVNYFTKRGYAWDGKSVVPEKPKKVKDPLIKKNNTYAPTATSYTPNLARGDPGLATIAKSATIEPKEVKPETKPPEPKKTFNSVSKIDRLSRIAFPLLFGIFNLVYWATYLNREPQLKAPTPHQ
T2 sequence (P28472 26-473 partner): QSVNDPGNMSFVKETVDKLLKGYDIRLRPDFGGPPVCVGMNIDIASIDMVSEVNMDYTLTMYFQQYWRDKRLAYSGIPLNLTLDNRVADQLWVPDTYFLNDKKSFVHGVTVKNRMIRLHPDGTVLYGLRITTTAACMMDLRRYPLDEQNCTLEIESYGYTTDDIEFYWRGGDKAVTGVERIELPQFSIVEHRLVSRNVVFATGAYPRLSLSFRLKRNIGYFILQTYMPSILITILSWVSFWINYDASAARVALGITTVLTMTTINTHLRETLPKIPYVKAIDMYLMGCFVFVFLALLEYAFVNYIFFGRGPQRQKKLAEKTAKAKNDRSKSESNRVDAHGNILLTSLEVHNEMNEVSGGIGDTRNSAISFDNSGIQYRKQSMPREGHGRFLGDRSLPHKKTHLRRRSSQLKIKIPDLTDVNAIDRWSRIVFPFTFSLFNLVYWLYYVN
T2 sequence (P18507 40-475): as the sequence (P22723 39-474) above

obese mouse model = experiment: Intraperitoneal puerarin for 20 d in high-fat-diet obese mouse model: body weight, blood lipid, jejunal TG, c-fos staining, oil red O staining; format: in vivo, C57BL/6J mice; conditions: brain slice c-fos immunofluorescence, puerarin i.p. 20 d vs control group
Description: The C57BL/6J mice were used as experimental mice in the present disclosure. The experimental mice each were raised in an SPF-level environment at 22° C. to 24° C. with a 12:12 circadian rhythm, and the experimental mice each were subjected to anaesthesia, analgesia, surgery, intraperitoneal injection, and other experimental operations in accordance with the relevant provisions of animal ethics.
In the present disclosure, the mice were fed with a high-fat diet in which a mass percentage of fat was 60% for 12 weeks, and when a body weight reached 35 g or more, animal models of alimentary obesity were successfully constructed. At a formal stage of the experiment (starting on day 0 in FIG. 1A, FIG. 3A, FIG. 6A, and FIG. 7A), the mice were raised in single cages, during which a daily food intake of each mouse model was accurately recorded, the feces was collected before and after drug intervention, and a daily body weight curve was recorded.
A method for determining TG in a sample was as follows: 20 mg to 30 mg of a sample was first weighed, a 5% NP40-containing lysis buffer was added, and a resulting mixture was homogenated and incubated in a metal bath at 95° C. for 5 min, which was repeated twice. […] 2 μl of the supernatant was added to each well, and after a chromogenic reaction was completed, a value of each well was determined by a microplate reader. […]

neurons in the DMV = experiment: Electrophysiological whole-cell patch-clamp recording of brain slices; format: cell-based; conditions: during puerarin incubation (concentration: 10 mM), current clamp, brain slices of obese mice
Description: Obese mouse models fed with a high-fat feed for 12 weeks were taken and myocardially perfused with an artificial cerebrospinal fluid (ACSF), and 200 μm to 300 μm-thick brainstem tissue slices were prepared by vibration slicing; and brain slices were incubated in oxygen at 35° C. for 1 h and then transferred to a patch-clamp system for whole-cell patch-clamp recording. Recorded neurons were selected according to the cellular morphology in the DMV, and a green-fluorescent dye was added to a pipette solution to label cells.

[2] = target: T3, α1 subunit of the GABAA receptor (Gabra1) in the DMV (Mus musculus, UniProt P22723+P62812); experiment: DMV-specific knockdown of Gabra1 to block puerarin in obese mouse model: body weight, blood lipid, jejunal TG, c-fos; format: in vivo, mice; conditions: for Body weight curve change percentage: single mice and mean
T3 construct: from tissue; host or cells: brainstem DMV of living obese mice
T3 sequence (P62812 28-455): as the sequence (P62812 28-455) above
T3 sequence (P63080 26-473 partner): as the sequence (P63080 26-473 partner) above
T3 sequence (P22723 39-474): as the sequence (P22723 39-474) above

[3] = target: T4, GABAA receptor in the DMV (Mus musculus, UniProt P22723+P62812); experiment: Colocalization staining of puerarin probe with GABAA receptor on brain slices; conditions: brain slice tissue, immunofluorescence staining
T4 construct: from tissue; host or cells: brain slice tissue (DMV)
T4 sequence (P62812 28-455): as the sequence (P62812 28-455) above
T4 sequence (P63080 26-473 partner): as the sequence (P63080 26-473 partner) above
T4 sequence (P22723 39-474): as the sequence (P22723 39-474) above

[4] = Puerarin group (control virus in DMV, puerarin i.p. daily), Day 0 baseline
[5] = Puerarin group (control virus, puerarin i.p. 7 d)
[6] = Puerarin group (control virus, puerarin i.p. 7 d), mean
[7] = Puerarin group vs control group

## O=c1c(-c2ccc(O)cc2)coc2c([C@@H]3O[C@H](CO)[C@@H](O)[C@H](O)[C@H]3O)c(O)ccc12 [Puerarin, puerarin]
[1]; Gγ2 blocking group (Gabrg2 shRNA virus in DMV, puerarin i.p. daily), Day 0 baseline
  Body weight curve change percentage: 0.00%
[1]; Gγ2 blocking group (Gabrg2 shRNA virus, puerarin i.p. 7 d)
  Jejunal TG level: 1.1912 μmol/mg/protein and 1.5075 μmol/mg/protein and 1.6522 μmol/mg/protein and 1.1566 μmol/mg/protein and 1.0093 μmol/mg/protein
[1]; Gγ2 blocking group (Gabrg2 shRNA virus, puerarin i.p. 7 d), mean
  Jejunal TG level: 1.3034 μmol/mg/protein
[1]; Gγ2 blocking group (Gabrg2 shRNA virus, puerarin i.p. daily), Day 1
  Body weight curve change percentage: 0.82% and 0.55% and −0.82% and −0.55% and 0.79%
[1]; Gγ2 blocking group (Gabrg2 shRNA virus, puerarin i.p. daily), Day 1, mean
  Body weight curve change percentage: 0.16%
[1]; Gγ2 blocking group (Gabrg2 shRNA virus, puerarin i.p. daily), Day 2
  Body weight curve change percentage: 1.37% and −0.28% and 0.27% and 0.54% and −0.81%
[1]; Gγ2 blocking group (Gabrg2 shRNA virus, puerarin i.p. daily), Day 2, mean
  Body weight curve change percentage: 0.22%
[1]; Gγ2 blocking group (Gabrg2 shRNA virus, puerarin i.p. daily), Day 3
  Body weight curve change percentage: 0.55% and −1.13% and 0.54% and 1.08% and 1.57%
[1]; Gγ2 blocking group (Gabrg2 shRNA virus, puerarin i.p. daily), Day 3, mean
  Body weight curve change percentage: 0.52%
[1]; Gγ2 blocking group (Gabrg2 shRNA virus, puerarin i.p. daily), Day 4
  Body weight curve change percentage: 0.28% and −1.41% and 0.80% and 1.60% and 1.06%
[1]; Gγ2 blocking group (Gabrg2 shRNA virus, puerarin i.p. daily), Day 4, mean
  Body weight curve change percentage: 0.47%
[1]; Gγ2 blocking group (Gabrg2 shRNA virus, puerarin i.p. daily), Day 5
  Body weight curve change percentage: 0.55% and −0.56% and 2.62% and 3.41% and 0.79%
[1]; Gγ2 blocking group (Gabrg2 shRNA virus, puerarin i.p. daily), Day 5, mean
  Body weight curve change percentage: 1.36%
[1]; Gγ2 blocking group (Gabrg2 shRNA virus, puerarin i.p. daily), Day 6
  Body weight curve change percentage: 0.55% and −0.56% and 2.62% and 3.41% and 1.83%
[1]; Gγ2 blocking group (Gabrg2 shRNA virus, puerarin i.p. daily), Day 6, mean
  Body weight curve change percentage: 1.57%
[1]; Gγ2 blocking group (Gabrg2 shRNA virus, puerarin i.p. daily), Day 7
  Body weight curve change percentage: 0.82% and 0.00% and 2.37% and 3.16% and 2.09%
[1]; Gγ2 blocking group (Gabrg2 shRNA virus, puerarin i.p. daily), Day 7, mean
  Body weight curve change percentage: 1.69%
[1]; Gγ2 blocking group (tissue-specific knockdown of Gabrg2, puerarin i.p.)
  c-fos staining signal of neurons in the DMV: could intervene in the inhibitory effect of puerarin on neurons in the DMV
[1]; [4]
  Body weight curve change percentage: 0.00%
[1]; [5]
  Blood lipid level: 0.6408 mM and 0.7143 mM and 0.8673 mM and 0.7337 mM and 0.7380 mM
  Jejunal TG level: 0.9191 μmol/mg/protein and 0.8860 μmol/mg/protein and 0.8466 μmol/mg/protein and 0.9139 μmol/mg/protein and 0.7516 μmol/mg/protein
[1]; [6]
  Blood lipid level: 0.7388 mM
  Jejunal TG level: 0.8634 μmol/mg/protein
[1]; Puerarin group (control virus, puerarin i.p. daily), Day 1
  Body weight curve change percentage: −1.10% and −1.06% and −0.81% and −0.79% and 0.82%
[1]; Puerarin group (control virus, puerarin i.p. daily), Day 1, mean
  Body weight curve change percentage: −0.59%
[1]; Puerarin group (control virus, puerarin i.p. daily), Day 2
  Body weight curve change percentage: −0.82% and −1.60% and −0.81% and −1.06% and −1.11%
[1]; Puerarin group (control virus, puerarin i.p. daily), Day 2, mean
  Body weight curve change percentage: −1.08%
[1]; Puerarin group (control virus, puerarin i.p. daily), Day 3
  Body weight curve change percentage: −2.50% and −0.53% and −2.20% and −1.33% and −1.68%
[1]; Puerarin group (control virus, puerarin i.p. daily), Day 3, mean
  Body weight curve change percentage: −1.65%
[1]; Puerarin group (control virus, puerarin i.p. daily), Day 4
  Body weight curve change percentage: −3.07% and −2.14% and −2.76% and −1.87% and −0.83%
[1]; Puerarin group (control virus, puerarin i.p. daily), Day 5
  Body weight curve change percentage: −4.83% and −2.97% and −1.64% and −5.20%
[1]; Puerarin group (control virus, puerarin i.p. daily), Day 5, mean
  Body weight curve change percentage: −3.52%
[1]; Puerarin group (control virus, puerarin i.p. daily), Day 6
  Body weight curve change percentage: −5.13% and −4.10% and −3.05% and −5.54% and −3.41%
[1]; Puerarin group (control virus, puerarin i.p. daily), Day 6, mean
  Body weight curve change percentage: −4.24%
[1]; Puerarin group (control virus, puerarin i.p. daily), Day 7
  Body weight curve change percentage: −6.34% and −4.96% and −3.33% and −5.54% and −3.41%
[1]; Puerarin group (control virus, puerarin i.p. daily), Day 7, mean
  Body weight curve change percentage: −4.72%
[1]; [7]
  c-fos staining signal of neurons in the DMV: inhibited by puerarin
GABAA (α1β3γ2) receptor
  Chloride influx / bioelectric signal change: increased chloride ions would enter cells, causing hyperpolarization
Obese mouse model
  Number of c-fos fluorescence signals in the DMV brain region: smaller than that in the control group
Neurons in the DMV
  Action potential discharge frequency of neurons in the DMV: significantly reduced
  Membrane potential of neurons in the DMV: slightly lower than the initial baseline
[2]; Gα1 blocking group (Gabra1 shRNA virus in DMV, puerarin i.p. daily), Day 0 baseline
  Body weight curve change percentage: 0.00%
[2]; Gα1 blocking group (Gabra1 shRNA virus, puerarin i.p. daily), Day 2
  Body weight curve change percentage: 0.70% and 0.68% and 0.80% and 0.69% and 1.06% and 0.91% and 0.82% and 0.83%
[2]; Gα1 blocking group (tissue-specific knockdown of Gabra1, puerarin i.p.)
  c-fos staining of brain slices (DMV): would intervene in the inhibitory effect of puerarin on neurons in the DMV
[2]; [4]
  Body weight curve change percentage: 0.00%
[2]; [7]
  c-fos staining of brain slices (DMV): less than that of the control group
[3]
  Distribution of puerarin probe and colocalization with GABAA receptor staining: enriched in the DMV and showed prominent colocalization with staining of the GABAA receptor
